Laboratory results from PubChem BioAssay AID1963834 (Molecular Pharmacology Branch, DTP, NCI, 2024).

System: 873145-292-R-J1-PDC complex spheroid viability
Assay: Anticancer human tumor 873145-292-R-J1-PDC patient-derived renal clear cell carcinoma cell line growth inhibition [POLQ]
Conditions: for IC50: curve of first compound; for viability, T/C: stronger effect = lower value
Protocol: Multicellular complex tumor spheroid response to Polymerase (POL) inhibitors (novobiocin, ART-558, RP6685) in combination with a variety of drugs and investigational agents in selected tumor cell lines
The POL inhibitors (novobiocin, ART-558, and RP6685) were evaluated both individually and in combination with standard of care and investigational anticancer small molecules within a complex spheroid model of solid tumors. . Complex spheroids include a stromal component modeled by human endothelial cells (HUVEC) and fibroblasts modeled by human mesenchymal stem cells (MSCs). The concentration ranges selected for each drug and investigational agent were based upon clinically achievable concentrations if the clinical Cmax of the agent was known.
Compounds. The drugs and investigational agents: novobiocin (NSC847541), ART-558 (NSC835418), RP-6685 (NSC848927), peposertib (NSC802822), ceralasertib (NSC780249), elimusertib (NSC800525), camonsertib (NSC841442), AZD-1390 (NSC803789), olaparib (NSC753686), talazoparib (NSC767125), rucaparib (NSC756644), sotorasib (NSC818433), MRTX-1133 (NSC836407), SN-38 (NSC673596), topotecan (NSC609699), epotoside (NSC141540), doxorubicin (NSC123127), gemcitabine (NSC613327), 5-fluorouracil (NSC19893), paclitaxel (NSC125973), vemurafenib (NSC761431), MSA-2 (NSC828583), SN-011 (NSC837082), adavosertib (NSC754352), prexasertib (NSC758257), carboplatin (NSC241240) and oxaliplatin (NSC266046), were obtained from the National Cancer Institute (NCI) Developmental Therapeutics Program Chemical Repository (21). The FDA-approved anticancer drug set is available from the Developmental Therapeutics Program at https://dtp.cancer.gov/organization/dscb/obtaining/. […] The stock solutions were prepared in dimethyl sulfoxide (DMSO, Sigma-Aldrich, St. Louis, MO, cat. D2650), except for the platinum compounds which were prepared in saline (Quality Biological, Gaithersburg, MD, cat. 114-055-101), at 800-fold the tested concentration and stored at -70 degrees C prior to their use. All drugs and investigational agents were tested over a range starting from a high concentration at or near the clinical Cmax and decreasing in half-log increments. If the clinical Cmax for an agent had not been determined, the highest concentration tested was 10 microM, except for SN-38, which was tested at a high concentration of 1 microM.
Cell Culture. All cells were maintained in an incubator at 37 degrees C and 5% CO2 with 95% humidity. The PDC lines were cultured according to standard operating procedures established by the NCI PDMR (https://pdmr.cancer.gov). Table 3 of the manuscript, lists the cell lines along with the number of the three cell types plated to form the mct-spheroids and media for tumor cell growth. After thawing, all PDC lines, except 997537-175-T-J1-PDC and 415267-285-R-J2-PDC, were cultured in Matrigel-coated flasks prepared with a working solution of 1X Ham's F-12 nutrient mix, without supplementation (Thermo Fisher Scientific, cat. 11765054), 100 U/mL penicillin-streptomycin (Thermo Fisher Scientific, cat. 15140122), and 2.5% Matrigel (Corning Inc., Corning, NY, cat. 354248) for the first three passages. The two PDC lines 997537-175-T-J1-PDC and 415267-285-R-J2-PDC were cultured on uncoated flasks. The 857933-349-R-J2-PDC line was cultured in 6C/Colon 1B media containing advanced DMEM/F-12 (Thermo Fisher Scientific, cat. 12634028), 10 mM HEPES (Thermo Fisher Scientific, cat. 15630080), 1X GlutaMAX supplement (Thermo Fisher Scientific, cat. 35050061), 0.1 mg/mL primocin (InvivoGen, San Diego, CA, cat. ant-pm-2), 10% defined fetal bovine serum, heat inactivated (HyClone Laboratories Inc., Logan, UT, cat. SH30070.03HI), 50% L-WRN conditioned media (ATCC, cat. CRL-3276), 1.25 mM N-Acetyl-L-cysteine (Sigma-Aldrich, cat. A9165), 10 mM nicotinamide (Sigma-Aldrich, cat. N0636), 1X B-27 supplement (Thermo Fisher Scientific, cat. 17504044), 1X N-2 supplement (Thermo Fisher Scientific, cat. […]
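Also: spheroids exposed to compounds for 7 days before viability readout.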
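For viability, T/C in this document: luminescence signal used as surrogate for viable cell content; 100% = DMSO vehicle control viability.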

What does the source list for `CC(=O)O[C@H]1C(=O)[C@@]2(C)[C@H]([C@H](OC(=O)c3ccccc3)[C@]3(O)C[C@H](OC(=O)[C@H](O)[C@@H](NC(=O)c4ccccc4)c4ccccc4)C(C)=C1C3(C)C)[C@]1(OC(C)=O)CO[C@@H]1C[C@@H]2O` + COC1C(OC(N)=O)C(O)C(Oc2ccc3c(O)c(NC(=O)c4ccc(O)c(CC=C(C)C)c4)c(=O)oc3c2C)OC1(C)C?
IC50 (second compound 0.0316 µM): > 3 µM; IC50 (second compound 0.1 µM): > 3 µM; IC50 (second compound 0.316 µM): > 3 µM; IC50 (second compound 1 µM): > 3 µM; IC50 (second compound 3.16 µM): > 3 µM; IC50 (second compound 10 µM): > 3 µM; viability, T/C (second compound 0.0316 µM, first compound 0.00949 µM): 90.9%; viability, T/C (second compound 0.0316 µM, first compound 0.03 µM): 67.2%; viability, T/C (second compound 0.0316 µM, first compound 0.0949 µM): 67.1%; viability, T/C (second compound 0.0316 µM, first compound 0.3 µM): 61.8%; viability, T/C (second compound 0.0316 µM, first compound 0.949 µM): 60.2%; viability, T/C (second compound 0.0316 µM, first compound 3 µM): 66.4%; viability, T/C (second compound 0.1 µM, first compound 0.00949 µM): 77.6%; viability, T/C (second compound 0.1 µM, first compound 0.03 µM): 75.2%; viability, T/C (second compound 0.1 µM, first compound 0.0949 µM): 73.9%; viability, T/C (second compound 0.1 µM, first compound 0.3 µM): 58.5%; viability, T/C (second compound 0.1 µM, first compound 0.949 µM): 58.5%; viability, T/C (second compound 0.1 µM, first compound 3 µM): 57.3%; viability, T/C (second compound 0.316 µM, first compound 0.00949 µM): 79.1%; viability, T/C (second compound 0.316 µM, first compound 0.03 µM): 73.5%; viability, T/C (second compound 0.316 µM, first compound 0.0949 µM): 66.6%; viability, T/C (second compound 0.316 µM, first compound 0.3 µM): 60.9%; viability, T/C (second compound 0.316 µM, first compound 0.949 µM): 55.7%; viability, T/C (second compound 0.316 µM, first compound 3 µM): 60.1%; viability, T/C (second compound 1 µM, first compound 0.00949 µM): 84%; viability, T/C (second compound 1 µM, first compound 0.03 µM): 77.7%; viability, T/C (second compound 1 µM, first compound 0.0949 µM): 74.8%; viability, T/C (second compound 1 µM, first compound 0.3 µM): 59%; viability, T/C (second compound 1 µM, first compound 0.949 µM): 57.6%; viability, T/C (second compound 1 µM, first compound 3 µM): 57.8%; viability, T/C (second compound 3.16 µM, first compound 0.00949 µM): 77.4%; viability, T/C (second compound 3.16 µM, first compound 0.03 µM): 72.5%; viability, T/C (second compound 3.16 µM, first compound 0.0949 µM): 70.1%; viability, T/C (second compound 3.16 µM, first compound 0.3 µM): 57.9%; viability, T/C (second compound 3.16 µM, first compound 0.949 µM): 58.1%; viability, T/C (second compound 3.16 µM, first compound 3 µM): 58.3%; viability, T/C (second compound 10 µM, first compound 0.00949 µM): 78.4%; viability, T/C (second compound 10 µM, first compound 0.03 µM): 69.1%; viability, T/C (second compound 10 µM, first compound 0.0949 µM): 62.3%; viability, T/C (second compound 10 µM, first compound 0.3 µM): 55.7%; viability, T/C (second compound 10 µM, first compound 0.949 µM): 64.1%; viability, T/C (second compound 10 µM, first compound 3 µM): 58.6%
